Reference: PMC10150365 (Journal of Medicinal Chemistry, 2023)
≈ marks a conversion by molar mass, not a printed value. Where “and” joins values, the source holds several entries; their conditions need not be identical. Equal values may be shown once. Read-outs that look alike come from different tables or passages of the source. Marks after values point to notes of the source that are not given here.

How the values were obtained:
physchem [1] = details: pH 7.4
physchem [2] = details: pH 7.4; remark: listed apart in the source
SK-OV-3 = test: cells; type: cell-based, human
in vitro [3] = type: in vitro ADME, mouse; details: male, CD1, mouse, microsomes, pH 7.4; n = 1, fraction unbound assumed 1; read-out: Microsome Clint, mouse (MLM)
in vitro [4] = type: in vitro ADME; details: male, Sprague Dawley, rat, microsomes, pH 7.4; n = 1, fraction unbound assumed 1; read-out: Microsome Clint, rat (RLM)
in vitro [5] = type: in vitro ADME; details: both sexes, human, microsomes, pH 7.4; n = 1, fraction unbound assumed 1; read-out: Microsome Clint, human (HLM)
Mouse blood PK (BALB/c) = details: for iv Cltb / Free Cav^0–24h / CLu / Vdu / AUC / Fmax: BALB/c mice; for iv Cltb: iv 5 mg/kg (18: 1 mg/kg); for Free Cav^0–24h: AUC^inf/24*fub; for CLu: CLtb/fub; for Vdu: Vss/fub; for Vd / half-life at 24 h: iv
P-gp = test: iv PK in CF1 wild-type and P-gp-knockout mice; type: in vivo, mouse; details: 5 mg/kg iv, 90% CI
[6] = iv PK in CF1 wild-type and P-gp-knockout mice; type: in vivo, mouse; details: mouse, whole blood, iv, 5 mg/kg, read-out: Vss
[7] = Plasma protein binding and blood-to-plasma ratio; details: for fub: BALB/c mouse blood, fub = fup/B:P; for Plasma, fup: BALB/c mouse, 90% CI
in vitro [8] = type: in vitro ADME; details: mouse; for hepatocyte CLint at 1 h, 1 µM: hepatocytes, n = 1, read-out: Mouse Heps CLint; for Pred. in vivo CLu from Heps: fraction unbound in assay assumed 0.4 or 0.2
[9] = Free fraction in CellTiter-Blue assay medium (dialysis); type: in vitro ADME; details: dialysis from CellTiter-Blue assay medium; 90% CI
[10] = for FaSSGF Concentration, replicates 1-3: pH 1.6, individual replicates; for FaSSIF Concentration, replicates 1-3 / FeSSIF Concentration, replicates 1-3: pH 6.5, individual replicates
physchem [11] = test: physchem
[12] = Homo sapiens, SK-OV-3, 96 h; read-out: SK-OV-3 pGI50 ± SEM (n) (converted)
[13] = Homo sapiens, SK-OV-3; 96 h, CellTiter-Blue, geometric mean; read-out: SK-OV-3 GI50
[14] = female, BALB/c, mouse, in vivo, po, 5 mg/kg
[15] = female, BALB/c, mouse, in vivo, po, 5 mg/kg, AUCu^0–6h, AUC*fub
[16] = female, BALB/c, mouse, in vivo, po, 5 mg/kg, po AUC^0–6h, po 5 mg/kg, 90% CI
[17] = female, BALB/c, mouse, whole blood, po, 5 mg/kg
[18] = pH 1.6, Thermodynamic solubility FaSSGF (mean), pH 1.6, 37 °C, 1 mg/mL (top limit of assay)
[19] = pH 6.5, Thermodynamic solubility FaSSIF (mean), pH 6.5, 37 °C, 1 mg/mL

Cc1ccc(NC(=O)c2ccc3c(c2)OCCO3)cc1NC(=O)c1ccc2nc(CN3CCCC3C)ccc2c1 (racemic) [Compound 13, Racemic-N-(5-(2,3-Dihydrobenzo[b][1,4]dioxine-6-carboxamido)-2-methylphenyl)-2-((2-methylpyrrolidin-1-yl)methyl)quinoline-6-carboxamide]
chromatographic logD (physchem [1]): 2.3 | solubility kinetic at 2 h, 100 µM (physchem [2]): 50 µM (≈ 26.8 µg/mL) | GI50 (SK-OV-3; [12]): 7.08 nM | GI50 (SK-OV-3; [13]): 7.1 nM

Cc1ccc(NC(=O)c2ccc3c(c2)OCCO3)cc1NC(=O)c1ccc2nc(CN3CCCC3)ccc2c1 [Compound 11, N-(5-(2,3-Dihydrobenzo[b][1,4]dioxine-6-carboxamido)-2-methylphenyl)-2-(pyrrolidin-1-ylmethyl)quinoline-6-carboxamide]
microsomal CLint (in vitro [3]): 21 µL/min/mg | chromatographic logD (physchem [1]): 1.9 | solubility kinetic at 2 h, 100 µM (physchem [2]): 40 µM (≈ 20.9 µg/mL) | microsomal CLint at 0.75 h, 1 µM (in vitro [4]): 20 µL/min/mg | microsomal CLint at 0.75 h, 1 µM (in vitro [5]): 23 µL/min/mg | GI50 (SK-OV-3; [12]): 6.17 nM | GI50 (SK-OV-3; [13]): 6.2 nM

Cc1ccc(NC(=O)c2ccc3c(c2)OCCO3)cc1NC(=O)c1ccc2nc(CN(C)C)ccc2c1 [Compound 12, N-(5-(2,3-Dihydrobenzo[b][1,4]dioxine-6-carboxamido)-2-methylphenyl)-2-((dimethylamino)methyl)quinoline-6-carboxamide]
chromatographic logD (physchem [1]): 1.4 | solubility kinetic at 2 h, 100 µM (physchem [2]): 50 µM (≈ 24.8 µg/mL) | GI50 (SK-OV-3; [12]): 11.7 nM | GI50 (SK-OV-3; [13]): 12 nM

Cc1ccc(NC(=O)c2ccc3c(c2)OCCO3)cc1NC(=O)c1ccc2nc(CN3CCCCC3)ccc2c1 [Compound 14, N-(5-(2,3-Dihydrobenzo[b][1,4]dioxine-6-carboxamido)-2-methylphenyl)-2-(piperidin-1-ylmethyl)quinoline-6-carboxamide]
solubility kinetic at 2 h, 100 µM (physchem [2]): 2 µM (≈ 1.07 µg/mL) | GI50 (SK-OV-3; [12]): 21.9 nM | GI50 (SK-OV-3; [13]): 73 nM

Cc1ccc(NC(=O)c2ccc3c(c2)OCCO3)cc1NC(=O)c1ccc2nc(OCCN3CCCCC3)ccc2c1 [Compound 17, N-(5-(2,3-Dihydrobenzo[b][1,4]dioxine-6-carboxamido)-2-methylphenyl)-2-(2-(piperidin-1-yl)ethoxy)quinoline-6-carboxamide]
iv Cltb (Mouse blood PK (BALB/c); 90% CI): 40 (48–32) mL/min/kg | Free Cav^0–24h (Mouse blood PK (BALB/c); po): 0.83 nM | CLu (Mouse blood PK (BALB/c)): 2700 mL/min/kg | Vdu (Mouse blood PK (BALB/c)): 340 L/kg | Tmax at 24 h (Mouse blood PK (BALB/c); [14]): 2.3 h | bioavailability at 24 h (Mouse blood PK (BALB/c); [14]): 24% | AUC (Mouse blood PK (BALB/c); [15]): 0.012 µM·h | AUC (Mouse blood PK (BALB/c); [16]): 0.83 µM·h | Vd (Mouse blood PK (BALB/c); female, BALB/c, mouse, whole blood): 5.1 L/kg | Cmax (Mouse blood PK (BALB/c); [17]): 180 nM | Tmax (Mouse blood PK (BALB/c); [17]): 2 h | Cltb (P-gp; CF1^PGP-KO mice): 38 (43-37) mL/min/kg | Cltb (P-gp; CF1^WT mice): 47 (62-35) mL/min/kg | Vd ([6]; CF1 mdr1a P-gp deficient (CF1-Abcb1amds), CF1^PGP-KO mice): 3.6 L/kg | Vd ([6]; CF1 wild type, CF1^WT mice): 4.7 L/kg | fub [7]: 0.015 | Plasma, fup [7]: 0.022 (0.027-0.017) | GI50 (SK-OV-3; Homo sapiens, SK-OV-3, 96 h, read-out: SK-OV-3 GI50): 1.1 nM | GI50 (SK-OV-3; Homo sapiens, SK-OV-3, 96 h, read-out: SK-OV-3 pGI50 ± SEM (n) (converted)): 1.07 nM

CC(C)N1CCN(Cc2ccc3cc(C(=O)Nc4cc(NC(=O)c5ccc6c(c5)OCCO6)ccc4Cl)ccc3n2)CC1 [Compound 18, N-(2-Chloro-5-(2,3-dihydrobenzo[b][1,4]dioxine-6-carboxamido)phenyl)-2-((4-isopropylpiperazin-1-yl)methyl)quinoline-6-carboxamide]
Fmax (Mouse blood PK (BALB/c)): 63% | iv Cltb (Mouse blood PK (BALB/c); 90% CI): 33 (35–31) mL/min/kg | Free Cav^0–24h (Mouse blood PK (BALB/c); po): 1.6 nM | CLu (Mouse blood PK (BALB/c)): 3000 mL/min/kg | Vdu (Mouse blood PK (BALB/c)): 450 L/kg | Vd (Mouse blood PK (BALB/c); female, BALB/c, mouse, in vivo): 4.9 L/kg | half-life at 24 h (Mouse blood PK (BALB/c); female, BALB/c, mouse, in vivo, 1 mg/kg): 2 h | Cmax (Mouse blood PK (BALB/c); [14]): 550 nM | Tmax at 24 h (Mouse blood PK (BALB/c); [14]): 1.7 h | bioavailability at 24 h (Mouse blood PK (BALB/c); [14]): 63% | AUC (Mouse blood PK (BALB/c); [15]): 0.026 µM·h | AUC (Mouse blood PK (BALB/c); [16]): 2.4 µM·h | chromatographic logD (physchem [1]): 2.3 | hepatocyte CLint at 1 h, 1 µM (in vitro [8]): 28 µL/min/1e6 cells | Pred. in vivo CLu from Heps (in vitro [8]): 930 ^i mL/min/kg | solubility kinetic at 2 h, 100 µM (physchem [2]): 70 µM (≈ 42 µg/mL) | fub [7]: 0.011 | Plasma, fup [7]: 0.012 (0.014-0.010) | Assay medium, fua [9]: 0.16 (0.18-0.15) | GI50 (SK-OV-3; [12]): 14.8 nM | GI50 (SK-OV-3; [13]): 15 nM

O=C(Nc1ccc(Cl)c(NC(=O)c2ccc3nc(CN4CCNCC4)ccc3c2)c1)c1ccc2c(c1)OCCO2 [Compound 19, N-(2-Chloro-5-(2,3-dihydrobenzo[b][1,4]dioxine-6-carboxamido)phenyl)-2-(piperazin-1-ylmethyl)quinoline-6-carboxamide]
GI50 (SK-OV-3; [12]): 11.5 nM | GI50 (SK-OV-3; [13]): 12 nM

CN1CCN(Cc2ccc3cc(C(=O)Nc4cc(NC(=O)c5ccc6c(c5)OCCO6)ccc4Cl)ccc3n2)CC1 [Compound 20, N-(2-Chloro-5-(2,3-dihydrobenzo[b][1,4]dioxine-6-carboxamido)phenyl)-2-((4-methylpiperazin-1-yl)methyl)quinoline-6-carboxamide]
chromatographic logD (physchem [1]): 2.1 | solubility kinetic at 2 h, 100 µM (physchem [2]): 30 µM (≈ 17.2 µg/mL) | GI50 (SK-OV-3; [12]): 19.1 nM | GI50 (SK-OV-3; [13]): 19 nM

CCN1CCN(Cc2ccc3cc(C(=O)Nc4cc(NC(=O)c5ccc6c(c5)OCCO6)ccc4Cl)ccc3n2)CC1 [Compound 21, N-(2-Chloro-5-(2,3-dihydrobenzo[b][1,4]dioxine-6-carboxamido)phenyl)-2-((4-ethylpiperazin-1-yl)methyl)quinoline-6-carboxamide]
Fmax (Mouse blood PK (BALB/c)): 69% | Free Cav^0–24h (Mouse blood PK (BALB/c); po): 1.3 nM | CLu (Mouse blood PK (BALB/c)): 5300 mL/min/kg | Vdu (Mouse blood PK (BALB/c)): 1100 L/kg | bioavailability (Mouse blood PK (BALB/c); female, BALB/c, mouse, in vivo): 100% | Vd (Mouse blood PK (BALB/c); female, BALB/c, mouse, in vivo): 5.7 L/kg | half-life at 24 h (Mouse blood PK (BALB/c); female, BALB/c, mouse, in vivo, 5 mg/kg): 2.3 h | Cmax (Mouse blood PK (BALB/c); [14]): 880 nM | Tmax at 24 h (Mouse blood PK (BALB/c); [14]): 1.7 h | bioavailability (Mouse blood PK (BALB/c); [14]): 96% | AUC (Mouse blood PK (BALB/c); [15]): 0.02 µM·h | AUC (Mouse blood PK (BALB/c); [16]): 3.9 µM·h | chromatographic logD (physchem [1]): 2.2 | hepatocyte CLint at 1 h, 1 µM (in vitro [8]): 71 µL/min/1e6 cells | Pred. in vivo CLu from Heps (in vitro [8]): 1400 ^i mL/min/kg | solubility kinetic at 2 h, 100 µM (physchem [2]): 50 µM (≈ 29.3 µg/mL) | fub [7]: 0.0053 | Plasma, fup [7]: 0.013 (0.015-0.011) | Assay medium, fua [9]: 0.15 (0.15-0.14) | GI50 (SK-OV-3; [12]): 11 nM | GI50 (SK-OV-3; [13]): 11 nM

O=c1[nH]c2ccccc2n1C1CCN(CCCC(c2ccc(F)cc2)c2ccc(F)cc2)CC1 [Pimozide]
FaSSGF Concentration, replicates 1-3 [10]: 0.087 mg/mL and 0.092 mg/mL and 0.090 mg/mL | FaSSIF Concentration, replicates 1-3 [10]: 0.004 mg/mL and 0.003 mg/mL | FeSSIF Concentration, replicates 1-3 [10]: 0.018 mg/mL and 0.008 mg/mL and 0.007 mg/mL | solubility thermodynamic (physchem [11]; [18]): 90 µg/mL (≈ 195 µM) | solubility thermodynamic (physchem [11]; [19]): 4 µg/mL (≈ 8.67 µM)

CC(C)NCC(O)COc1cccc2ccccc12 (centres unmarked) [Propranolol]
FaSSGF Concentration, replicates 1-3 [10]: 1.246 mg/mL and 1.094 mg/mL and 1.002 mg/mL | FaSSIF Concentration, replicates 1-3 [10]: 0.853 mg/mL and 1.047 mg/mL and 0.931 mg/mL | FeSSIF Concentration, replicates 1-3 [10]: 1.669 mg/mL and 1.812 mg/mL and 1.465 mg/mL | solubility thermodynamic (physchem [11]; [18]): 1110 µg/mL (≈ 4300 µM) | solubility thermodynamic (physchem [11]; [19]): 944 µg/mL (≈ 3640 µM)
